Experimental data from patent publication US9802885B2, “Substituted cyclohexane compounds” (TAKASAGO INTERNATIONAL CORPORATION (USA), priority 2011, dated 2017).
Entries after “also recorded” stand apart in the source; their conditions may differ.

Legend:
trained evaluators [1] = assay: Rated warming level of hot and spicy flavor composition in water, swish and spit (Example 17); assay type: in vivo
Method: Each evaluator was asked to rate the warming level in the mouth on a scale of 1-9 over a 5 minute period after swishing & spitting the sample.

[2] = Organoleptic properties of the compounds of Formulas I, II and III (Tables 1-3); details: in vivo
Text: For example, the compounds of the presently disclosed subject matter impart cooling, warming, burning, tingling, numbing, salivating, musty, bitter, and/or astringent sensation. In addition, the compounds of the presently disclosed subject matter can impart tropical, fruity (e.g., berry), minty, phenolic, and vegetable (e.g., peppery) notes as well as creaminess and sweetness to flavor ingredients. The organoleptic properties of certain compounds of Formulas I, II, and III are described in Tables 1, 2, and 3, respectively.

trained evaluators [3] = assay: Enhancement of the warming effect of vanillyl butyl ether (VBE), heat intensity and preference (Example 20); assay type: in vivo
Method: Compound 1 was tested for its synergistic enhancement of the warming effect from pungent compound vanillyl butyl ether (VBE). A stock solution of 1% VBE in ethanol was prepared. This stock solution was then added at 0.2% in water to produce a 20 ppm tasting solution (Control). To subsequent 20 ppm tasting solutions was added 2.5 ppm of Compound 1 (Formula G) and 2.5 ppm WS-3 (Formula H). Ten trained evaluators were asked to rate heat intensity in the mouth and rank the three samples for preference after swishing and spitting the sample.

[4] = system: expertly trained evaluators; assay: Rated cooling intensity of mouth-rinse composition (Example 21); assay type: in vivo
Method: Compound 8 was tested in the following mouth-rinse composition Formula J and evaluated over a 20 minute period by five expertly trained evaluators, compared to two other mint flavor compositions, a Control and Formula K that contains WS-3 as shown below. The compositions were each dissolved at 0.1% in the following mouth-rinse base (50 ppm dosage of Compound 8 & WS-3 respectively). The evaluators were asked to rate cooling intensity on a scale of 1-9 in the mouth at 0, 0.5, 1, 5, 10, and 20 minutes.

trained evaluators [5] = assay: Tasting of wasabi-type flavor composition in water (Example 18); assay type: in vivo
Text: Formula C was selected as being preferred by 7 out of the 8 evaluators.

[6] = system: expertly trained evaluators; assay: Tasting of mouthwatering composition in water (Example 19); assay type: in vivo; details: 0.5% w/w Compound 10, 0.05% in water (2.5 ppm)
[7] = generally known; cited from earlier work

SMILES: C=C(C)[C@@H]1CC[C@@H](C)C[C@H]1C(=O)NCC [Compound 1, (1R,2R,5R)—N-ethyl-5-methyl-2-(prop-1-en-2-yl)cyclohexanecarboxamide]
- heat/warming perception compared to control Formula B (trained evaluators [1]; 0.5% w/w Compound 1): enhance the initial heat perception
- heat/warming perception compared to control Formula B (trained evaluators [1]; 0.5% w/w Compound 1, listed as N-ethyl-5-methyl-2-(prop-1-en-2-yl)cyclohexanecarboxamide): enhances the warming perception
- Organoleptic Properties [2]: cooling, tingling, and numbing sensation
- enhancement of the warming effect of pungent compounds compared to WS-3 (trained evaluators [3]): enhances the warming effect of pungent compounds much better

SMILES: C=C(C)[C@@H]1CC[C@@H](C)C[C@H]1C(=O)NC1CC1 [Compound 2, (1R,2R,5R)—N-cyclopropyl-5-methyl-2-(prop-1-en-2-yl)cyclohexanecarboxamide]
- Organoleptic Properties [2]: slight cooling, salivating

SMILES: C=C(C)[C@@H]1CC[C@@H](C)C[C@H]1C(=O)NC(C)C [Compound 3, (1R,2R,5R)—N-isopropyl-5-methyl-2-(prop-1-en-2-yl)cyclohexanecarboxamide]
- Organoleptic Properties [2]: slight cooling

SMILES: C=C(C)[C@@H]1CC[C@@H](C)C[C@H]1C(=O)NC(C)(C)C [Compound 4, (1R,2R,5R)—N-(tert-butyl)-5-methyl-2-(prop-1-en-2-yl)cyclohexanecarboxamide]
- Organoleptic Properties [2]: slight burn, warming,; also recorded: irritation

SMILES: C=C(C)[C@@H]1CC[C@@H](C)C[C@H]1C(=O)NC(C)CC (stereo partly drawn) [Compound 5, (1R,2R,5R)—N-(sec-butyl)-5-methyl-2-(prop-1-en-2-yl)cyclohexanecarboxamide]
- Organoleptic Properties [2]: bitter, cooling

SMILES: C=C(C)[C@@H]1CC[C@@H](C)C[C@H]1C(=O)NCC(=O)OCC [Compound 6, (1R,2R,5R)-ethyl 2-(5-methyl-2-(prop-1-en-2-yl)cyclohexanecarboxamido)acetate]
- Organoleptic Properties [2]: bitter, cooling, irritation

SMILES: C=C(C)[C@@H]1CC[C@@H](C)C[C@H]1C(=O)Nc1ccc(OC)cc1 [Compound 7, (1R,2R,5R)—N-(4-methoxyphenyl)-5-methyl-2-(prop-1-en-2-yl)cyclohexanecarboxamide]
- Organoleptic Properties [2]: musty, astringent, slight cooling

SMILES: C=C(C)[C@@H]1CC[C@@H](C)C[C@H]1C(=O)Nc1ccc(CC#N)cc1 [Compound 8, (1R,2R,5R)—N-(4-(cyanomethyl)phenyl)-5-methyl-2-(prop-1-en-2-yl)cyclohexanecarboxamide]
- Organoleptic Properties [2]: phenolic, strong burning
- cooling perception of the mouth-rinse composition compared to Control and WS-3 (Formula K) [4]: enhances and lengthens the cooling of a mouth-rinse composition better than WS-3
- burning sensation and character compared to control Formula D (trained evaluators [5]; 0.5% w/w Compound 8): more intense and lingering burning sensation
- burning sensation and character compared to control Formula D (trained evaluators [5]; 0.5% w/w Compound 8, listed as N-(4-(cyanomethyl)phenyl)-5-methyl-2-(prop-1-en-2-yl)cyclohexanecarboxamide): improved lingering burning sensation

SMILES: C=C(C)[C@@H]1CC[C@@H](C)C[C@H]1OC(=O)CCC(=O)O [Compound 9, (1R,2S,5R)-4-((−5-methyl-2-(prop-1-en-2-yl)cyclohexyl)oxy)-4-oxobutanoic acid]
- Organoleptic Properties [2]: fruity, chemical, slight; also recorded: cooling/burn

SMILES: C=C(C)[C@@H]1CC[C@@H](C)C[C@H]1OC(=O)CCCC(=O)O [Compound 10, (1R,2S,5R)-5-((−5-methyl-2-(prop-1-en-2-yl)cyclohexyl)oxy)-5-oxopentanoic acid]
- mouthwatering effect compared to control Formula F [6]: extended cooling and increased astringency
- Organoleptic Properties [2]: sweet, fruity, slight; also recorded: cooling

SMILES: C=C(C)[C@@H]1CC[C@@H](C)C[C@H]1OC(=O)C(C)O (stereo partly drawn) [Compound 11, (1R,2S,5R)-5-methyl-2-(prop-1-en-2-yl)cyclohexyl 2-hydroxypropanoate]
- Organoleptic Properties [2]: minty, bitter, cooling

SMILES: C=C(C)[C@@H]1CC[C@@H](C)C[C@H]1OC(=O)CC(C)=O [Compound 12, (1R,2S,5R)-5-methyl-2-(prop-1-en-2-yl)cyclohexyl 3-oxobutanoate]
- Organoleptic Properties [2]: bitter, fruity

SMILES: C=C(C)[C@@H]1CC[C@@H](C)C[C@H]1OC(=O)CC(C)O (stereo partly drawn) [Compound 13, (1R,2S,5R)-5-methyl-2-(prop-1-en-2-yl)cyclohexyl 3-hydroxybutanoate]
- Organoleptic Properties [2]: bitter, mild peppery

SMILES: C=C(C)[C@@H]1CC[C@@H](C)C[C@H]1OCC(=O)O [Compound 14, (1R,2S,5R)-2-((5-methyl-2-(prop-1-en-2-yl)cyclohexyl)oxy)acetic acid]
- Organoleptic Properties [2]: creamy; also recorded: fruity,

SMILES: C=C(C)[C@@H]1CC[C@@H](C)C[C@H]1OCC(=O)NCC(C)C [Compound 15, (1R,2S,5R)—N-isobutyl-2-((5-methyl-2-(prop-1-en-2-yl)cyclohexyl)oxy)acetamide]
- Organoleptic Properties [2]: bitter,; also recorded: tingle/; also recorded: burning

SMILES: CCNC(=O)C1CC(C)CCC1C(C)C (centres unmarked) [WS-3, N-ethyl-5-methyl-2-isopropylcyclohexanecarboxamide]
- sensation provided by menthyl analog [7]: clean cool
